Drawing on patent publication US9914724B2, “C-aryl glycosid derivatives, pharmaceutical composition, preparation process and uses thereof” (SHANGHAI DE NOVO PHARMATECH CO. LTD., priority 2014, dated 2018), this text covers IC50 for 18 compounds.

Experiment [1] has as its target T1, SGLT-2 (Homo sapiens, UniProt P31639).
T1 sequence (P31639 1-672): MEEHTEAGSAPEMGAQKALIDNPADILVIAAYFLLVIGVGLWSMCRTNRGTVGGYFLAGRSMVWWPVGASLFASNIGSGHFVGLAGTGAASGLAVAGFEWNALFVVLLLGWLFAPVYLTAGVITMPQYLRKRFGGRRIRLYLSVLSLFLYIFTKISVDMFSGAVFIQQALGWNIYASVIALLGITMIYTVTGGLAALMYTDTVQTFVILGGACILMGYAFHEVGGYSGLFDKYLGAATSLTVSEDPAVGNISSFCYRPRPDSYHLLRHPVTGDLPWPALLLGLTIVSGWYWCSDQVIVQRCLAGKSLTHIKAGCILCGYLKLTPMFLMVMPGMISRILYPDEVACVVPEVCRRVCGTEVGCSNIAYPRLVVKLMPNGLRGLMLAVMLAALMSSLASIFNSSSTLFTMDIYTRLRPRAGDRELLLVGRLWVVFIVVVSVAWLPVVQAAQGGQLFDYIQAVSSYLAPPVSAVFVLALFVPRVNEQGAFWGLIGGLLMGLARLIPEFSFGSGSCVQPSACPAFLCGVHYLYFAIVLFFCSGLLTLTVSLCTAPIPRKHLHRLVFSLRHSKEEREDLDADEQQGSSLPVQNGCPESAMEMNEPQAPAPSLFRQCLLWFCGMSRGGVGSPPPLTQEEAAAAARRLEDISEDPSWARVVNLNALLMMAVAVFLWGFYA
The experiment is described as follows: [14C]-AMG absorption in stable SGLT2 expressing Flp-in CHO cells (SGLT-2 activity screening assay). Type of experiment: cell-based. The conditions noted are these: 14C-AMG uptake, 37° C. 1 h, 1% DMSO. An excerpt:
(§1) Example 1: [^14C]-AMG Absorption in Stable SGLT1 and SGLT2 Expressing Flp-in CHO Cells (SGLT-1 and SGLT-2 Activity Screening Assay)
(§2) SGLT-1 and SGLT-2 cDNA clones were purchased from OriGene. After sequencing verification, the expression vectors were constructed based on pcDNA5/FRT using conventional molecular biology method. The expression vector was transfected into Flp-in CHO cells using Lipofectamin 2000. The transfected cells were subject hygromycin selection. The single clones of cells were selected by serial dilutions 4-5 weeks after transfection. The expression of SGLT-1 ? SGLT-2 were confirmed by RT-PCR and functional assay and cell line with strong signal was selected for subsequent study.
(§3) Culture of stable SGLT-1 and SGLT-2 expressing Flp-in CHO cell line: the culture media contain F12 medium (Invitrogen), 500 μg/ml hygromycin (Calbiochem) and 10% FBS (Invitrogen). Upon 80% confluency, the cells in the T75 flask were washed three times with PBS (Invitrogen), and 5 mL of Trpsin-EDTA solution (Invitrogen) was then added. The flask was gently rotated so that all the cells were submerged in the digestion solution. After the cells detach, 10 mL of culture medium was added and single cell suspension was prepared by pipetting up and down. The cell concentration was adjusted to 3×10^5/mL, 100 μL/well was added onto clear bottom 96-well plate (Corning).
(§4) The cells were ready for absorption assay once they attached after overnight culture. 12 h after cell plating, the cells were washed once with 150 μL/well absorption solution KRH-NMG (120 mM NMG, 4.7 mM KCl, 1.2 mM MgCl2, 2.2 mM CaCl2, 10 mM HEPES, pH 7.4 1 mM Tris). The solution was then removed from the well. 2.5 μCi/mL ^14C labeled AMG (PerkinElmer) Buffer KRH-Na+ (120 mM NaCl, 4.7 mM KCl, 1.2 mM MgCl2, 2.2 mM CaCl2, 10 mM HEPES, pH 7.4 1 mM Tris) was added at […] after washing with Buffer KRH-Na+ and KRH-NMG. The corresponding compound I was immediately added at 5 μL/well, ensuring the concentration of Dimethyl Sulfoxide was 1% (v/v). The plate was subsequently incubated at 37° C. for 1 h, after which 150 μL of ice cold wash buffer (120 mM NaCl, 4.7 mM KCl, 1.2 mM MgCl2, 2.2 mM CaCl2, 10 mM HEPES, 0.5 mM phlorizin, pH 7.4 1 mM Tris) was immediately added to terminate the reaction. Each well was washed three times with wash buffer and finally the solution was removed. Caution was taken to avoid cell detachment during the procedure. 20 μL/well of Lysis Buffer (0.1 mM NaOH) was added, the plate was vortexed at 900 rpm for 5 min. 80 μL/well of scintillation solution Microsint40 was added, and vortexed at 900 rpm for 5 min. The radioactivity was assayed using MicroBeta Trilux (PerkinElmer). The data was analyzed and IC50 of the compounds was calculated using XL-fit software.

Experiment [2] deals with T2, SGLT-1 (Homo sapiens, UniProt P13866).
T2 sequence (P13866 1-664): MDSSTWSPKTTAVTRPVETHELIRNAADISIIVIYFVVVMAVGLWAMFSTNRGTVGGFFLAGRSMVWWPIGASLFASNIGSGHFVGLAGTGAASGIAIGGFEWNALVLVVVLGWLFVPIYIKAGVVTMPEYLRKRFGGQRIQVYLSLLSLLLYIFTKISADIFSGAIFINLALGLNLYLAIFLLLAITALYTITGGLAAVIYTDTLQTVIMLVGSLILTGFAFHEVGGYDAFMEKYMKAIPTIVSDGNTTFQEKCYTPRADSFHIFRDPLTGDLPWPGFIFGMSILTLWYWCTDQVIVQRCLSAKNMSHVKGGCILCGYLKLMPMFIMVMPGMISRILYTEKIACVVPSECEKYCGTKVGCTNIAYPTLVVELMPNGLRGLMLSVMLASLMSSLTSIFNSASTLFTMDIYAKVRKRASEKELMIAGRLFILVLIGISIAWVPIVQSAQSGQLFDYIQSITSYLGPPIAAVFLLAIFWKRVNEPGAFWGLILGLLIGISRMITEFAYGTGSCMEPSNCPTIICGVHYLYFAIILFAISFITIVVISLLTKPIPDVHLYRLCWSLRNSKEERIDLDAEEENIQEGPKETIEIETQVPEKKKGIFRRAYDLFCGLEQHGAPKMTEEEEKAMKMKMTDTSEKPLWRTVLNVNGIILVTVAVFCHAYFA
The experiment is described as follows: [14C]-AMG absorption in stable SGLT1 expressing Flp-in CHO cells (SGLT-1 activity screening assay). Type of experiment: cell-based. The conditions noted are these: 14C-AMG uptake, 37° C. 1 h, 1% DMSO.
From the text: as §1, §2, §3, §4

`Cc1ccc([C@@H]2O[C@H](CO)[C@@H](O)[C@H](O)[C@H]2O)cc1Cc1ccc(OCC2Cc3ccccc3O2)cc1` (single isomer, unassigned) [Compound I-27]: the IC50 (usually the point on the concentration scale where inhibition reaches its midpoint) amounted to 0.0043 µM in experiment [1] and 0.396 µM in experiment [2].
In the case of `CC1(COc2ccc(Cc3cc([C@@H]4O[C@H](CO)[C@@H](O)[C@H](O)[C@H]4O)ccc3Cl)cc2)Cc2ccccc2O1` (single isomer, unassigned) [Compound I-106], the IC50 in experiment [1] worked out at 0.0182 µM; in experiment [2], 0.7 µM.
Consider `CC1(COc2ccc(Cc3cc([C@@H]4O[C@H](CO)[C@@H](O)[C@H](O)[C@H]4O)ccc3Cl)cc2)Cc2ccccc2O1` (single isomer, unassigned) [Compound I-107], for which the figures for the IC50 in experiment [1] and in experiment [2] were greater than 2 µM and 31.4 µM, respectively.
Regarding `Cc1ccc([C@@H]2O[C@H](CO)[C@@H](O)[C@H](O)[C@H]2O)cc1Cc1ccc(OCC2(C)Cc3ccccc3O2)cc1` (single isomer, unassigned) [Compound I-110], the IC50 stood at 0.0129 µM in experiment [1] and 0.244 µM in experiment [2].
As for `Cc1ccc([C@@H]2O[C@H](CO)[C@@H](O)[C@H](O)[C@H]2O)cc1Cc1ccc(OCC2(C)Cc3ccccc3O2)cc1` (single isomer, unassigned) [Compound I-111], the figures for the IC50 in experiment [1] and in experiment [2] were greater than 2 µM and 34.4 µM, respectively.
Turning to `Cc1ccc([C@@H]2O[C@H](CO)[C@@H](O)[C@H](O)[C@H]2O)cc1Cc1ccc(OCC2(C)OCc3ccccc32)cc1` (single isomer, unassigned) [Compound I-113], the IC50 in experiment [1] was determined as 0.0186 µM; in experiment [2], 0.655 µM.
With `Cc1ccc([C@@H]2O[C@H](CO)[C@@H](O)[C@H](O)[C@H]2O)cc1Cc1ccc(OCC2(C)OCc3ccccc32)cc1` (single isomer, unassigned) [Compound I-114], the IC50 in experiment [1] was 0.0052 µM; in experiment [2], 0.997 µM.
As to `CC1(COc2ccc(Cc3cc([C@@H]4O[C@H](CO)[C@@H](O)[C@H](O)[C@H]4O)ccc3Cl)cc2)OCc2ccccc21` (single isomer, unassigned) [Compound I-115], the IC50 in experiment [1] came to 0.0127 µM; in experiment [2], 0.725 µM.
For `CC1(COc2ccc(Cc3cc([C@@H]4O[C@H](CO)[C@@H](O)[C@H](O)[C@H]4O)ccc3Cl)cc2)OCc2ccccc21` (single isomer, unassigned) [Compound I-116], the values for the IC50 in experiment [1] and in experiment [2] were 0.0039 µM and 1.31 µM, respectively.
Turning to `Cc1ccc([C@@H]2O[C@H](CO)[C@@H](O)[C@H](O)[C@H]2O)cc1Cc1ccc(-c2ccc(F)cc2)s1` [B, Canagliflozin, reference compound], the results for the IC50 in experiment [1] and in experiment [2] were 0.0046 µM and 0.287 µM, respectively.
Regarding `OC[C@H]1O[C@@H](c2ccc(F)c(Cc3ccc(OCc4cc5ccccc5o4)cc3)c2)[C@H](O)[C@@H](O)[C@@H]1O` [Compound I-2, (2S,3R,4R,5S,6R)-2-(3-(4-(benzofuran-2-ylmethoxy)benzyl)-4-fluorophenyl)-6-(hydroxymethyl)tetrahydro-2H-pyran-3,4,5-triol], the IC50 in experiment [1] came to 0.015 µM; in experiment [2] it was 2.54 µM.
Regarding `Cc1ccc([C@@H]2O[C@H](CO)[C@@H](O)[C@H](O)[C@H]2O)cc1Cc1ccc(OCc2cc3ccccc3o2)cc1` [Compound I-3, (2S,3R,4R,5S,6R)-2-(3-(4-(benzofuran-2-ylmethoxy)benzyl)-4-methylphenyl)-6-(hydroxymethyl)tetrahydro-2H-pyran-3,4,5-triol], the IC50 in experiment [1] was 0.0056 µM; in experiment [2] it was 0.32 µM.
As to `COc1ccc([C@@H]2O[C@H](CO)[C@@H](O)[C@H](O)[C@H]2O)cc1Cc1ccc(OCc2cc3ccccc3o2)cc1` [Compound I-5, (2S,3R,4R,5S,6R)-2-(3-(4-(benzofuran-2-ylmethoxy)benzyl)-4-methoxyphenyl)-6-(hydroxymethyl)tetrahydro-2H-pyran-3,4,5-triol], the IC50 in experiment [1] was determined as 0.018 µM; in experiment [2], 1.51 µM.
Compound `OC[C@H]1O[C@@H](c2cccc(Cc3ccc(OCc4cc5ccccc5o4)cc3)c2)[C@H](O)[C@@H](O)[C@@H]1O` [Compound I-6, (2S,3R,4R,5S,6R)-2-(3-(4-(benzofuran-2-ylmethoxy)benzyl)phenyl)-6-(hydroxymethyl)tetrahydro-2H-pyran-3,4,5-triol] registered an IC50 in experiment [1] of 0.036 µM.
Turning to `OC[C@H]1O[C@@H](c2ccc(Cl)c(Cc3ccc(OCc4cc5c(F)cccc5o4)cc3)c2)[C@H](O)[C@@H](O)[C@@H]1O` [Compound I-7, (2S,3R,4R,5S,6R)-2-(4-chloro-3-(4-((4-fluorobenzofuran-2-yl)methoxy)benzyl)phenyl)-6-(hydroxymethyl)tetrahydro-2H-pyran-3,4,5-triol], the IC50 amounted to 0.014 µM in experiment [1] and 0.444 µM in experiment [2].
The matching figures for `OC[C@H]1O[C@@H](c2ccc(Cl)c(Cc3ccc(OCc4cc5cc(F)ccc5o4)cc3)c2)[C@H](O)[C@@H](O)[C@@H]1O` [Compound I-8, (2S,3R,4R,5S,6R)-2-(4-chloro-3-(4-((5-fluorobenzofuran-2-yl)methoxy)benzyl)phenyl)-6-(hydroxymethyl)tetrahydro-2H-pyran-3,4,5-triol]: 0.025 µM and 1.44 µM.
`OC[C@H]1O[C@@H](c2ccc(Cl)c(Cc3ccc(OCCC4Cc5ccccc5O4)cc3)c2)[C@H](O)[C@@H](O)[C@@H]1O` (stereo partly drawn) [Compound I-60, (2S,3R,4R,5S,6R)-2-(4-chloro-3-(4-(2-(2,3-dihydrobenzofuran-2-yl)ethoxy)benzyl)phenyl)-6-(hydroxymethyl)tetrahydro-2H-pyran-3,4,5-triol] displayed a concentration for half-maximal inhibition (IC50) in experiment [1] of 0.038 µM.
Regarding `CC1(C)OC(COc2ccc(Cc3cc([C@@H]4O[C@H](CO)[C@@H](O)[C@H](O)[C@H]4O)ccc3Cl)cc2)c2ccccc21` (stereo partly drawn) [Compound I-63, (2S,3R,4R,5S,6R)-2-(4-chloro-3-(4-((3,3-dimethyl-1,3-dihydroisobenzofuran-1-yl)methoxy)benzyl)phenyl)-6-(hydroxymethyl)tetrahydro-2H-pyran-3,4,5-triol], the IC50 in experiment [1] came out at 0.0056 µM.
